Patent publication US20250332080A1, “Skin Cell Energy Booster Composition” (CarboCode S.A., priority 2022, published 2025)

Test system: Reconstructed Human Epidermis (RHE)
Test: Proteomic (LC-MS/MS) analysis of Reconstructed Human Epidermis treated topically with ceramide in base emulsion
Assay type: cell-based
Settings: topical 24 h, 0.01%, 0.03%, 0.15% ceramide in vehicle vs vehicle
Excerpt: FIGS. 1 to 3 show heatmaps using a log 2 scale with up- or downregulation of respective proteins upon treatment with 0.01% (01), 0.03% (03) and 0.15% (15) of respective ceramide in vehicle as compared to vehicle without ceramide (VEH) (FIG. 1: GlcCerNS, FIG. 2: LacCerNS, FIG. 3: CerNG); detailed experimental setup explained in Example 1.
Material and methods: Reconstructed Human Epidermis (RHE) cell culture was used, as this system mimics the in vivo 3D structure of epidermal tissue as well as the conditions and processes that occur in normal epidermis. RHE were cultured using the medium provided by the manufacturer until analysis. RHE were maintained in survival for 24 hours, before RHE were topically treated with lipid in a base emulsion for 24 h. 3 RHE were treated with base emulsion alone and 3 more remained untreated as a control batch (Ctrl). RHE were incubated under classical cell culture conditions (37° C., 5% CO2).
Sample preparation and LC-MS/MS analysis: Protein was extracted using the Pierce Total Protein Extraction Kit (Thermo Fisher) according to manufacturer's recommendations. The protein was mixed with Laemmli buffer and heated to 37° C. for 30 min. Protein concentration was determined by the BCA method and standardized for all samples. The samples were separated by SDS-PAGE and digested with trypsin overnight. The peptides generated were acidified and separated. The mass spectra were queried using Proteome Discoverer (version 2.5). The resulting MS/MS data were queried against the Homo sapiens proteome UP000005640 (20371 reviewed entries). Results were filtered based on unique peptides>2, and global peptide scores. Analyses were performed using Proteome Discoverer 2.5 to check for overall sample quality.
Bioinformatics and statistical analysis: Proteomic analysis returned a mean total of 34961 high-quality peptides corresponding to a mean 2422 identifiable and quantifiable RHE proteins among conditions. Proteins with a p-value<0.05 in at least one of the concentrations tested for a lipid were considered significant and used for pairwise comparisons. Relevant proteins were classified by their biological processes and associated pathways using the publicly available gene ontology (GO) database provided by the Gene Ontology Consortium and Reactome. Interactome analysis was performed using Cytoscape combined with STRING.

NAD-dependent malic enzyme (mitochondrial) protein level | NADH dehydrogenase [ubiquinone]1 alpha subcomplex subunit 8 protein level | NADH dehydrogenase [ubiquinone]iron-sulfur protein 2 (mitochondrial) protein level | cytochrome c oxidase subunit 6C protein level | phosphomevalonate kinase protein level | cytochrome c oxidase subunit 2 protein level | cytochrome c oxidase subunit NDUFA4 protein level | Substance | ATP synthase subunit delta (mitochondrial) protein level | ATP synthase subunit g (mitochondrial) protein level | ATP-dependent zinc metalloprotease YME1L1 protein level | cytochrome b-c1 complex subunit 9 protein level
upregulation | upregulation | upregulation | upregulation | upregulation |  |  | Glucosyl ceramide [GlcCer] | upregulation | upregulation | upregulation | 
 |  |  | upregulation | upregulation |  |  | ceramide NG | upregulation | upregulation |  | 
upregulation |  |  | upregulation | upregulation | upregulation | upregulation | lactosyl ceramide | upregulation | upregulation | upregulation | upregulation
